Assay results from patent US8486959B2, “Dibenzo[f,h]isoquinoline derivatives” (National Health Research Institutes, priority 2010, dated 2013).
Read-outs that look alike come from different tables or passages of the source.

Key:
Type in all cases: cell-based
[1] = system: NCI H460, MCF7, SF268, HONE-1, NUGC-3, HepG2 and A549 cells; assay: Inhibition of cancer cell growth (MTS assay); settings: Homo sapiens, tested cancer cells, 72 h, read-out: CC50 (concentration required to reduce the cancer cell growth by 50%)
Protocol: NCI H460 (human lung cancer cell line), MCF7 (human breast cancer cell line), SF268 (human brain cancer cell line), HONE-1 (human nasopharyngeal epithelial carcinomas cell line), NUGC-3 (human gastric cancer cell line) cells, HepG2 (human hepatocellular carcinoma cell line), and A549 (human lung adenocarcinoma epithelial cell line) were maintained in DMEM medium containing 10% fetal bovine serum, seeded in 96-well plates (2500, 6500, 7500, 4500, 6000, 10000, or 5000 cells/well), and incubated at 37° C. with 5% CO2 supply for 24 h. The cells were then incubated with or without a test compound (at five different concentrations) in a CO2 incubator at 37° C. for 72 h. The number of viable cells in each well was determined by the tetrazolium dye reduction assay (MTS assay) according to the protocol provided by the manufacturer (Promega, Madison, Wis., USA). For each test compound, a dose-response curve was drawn based on the concentrations of the compound versus the numbers of viable cells treated with the compound at those concentrations. The CC50 value of that compound, referring to the concentration of the compound required to reduce the cancer cell growth by 50%, was determined according to the dose-response curve.

[2] = system: Transmissible Gastroenteritis Virus (TGEV) spike (S) and nucleocapsid (N) proteins; assay: Inhibition of TGEV protein production (indirect immunofluorescent assay in ST cells)
Protocol: Swine testicular (ST) cells were cultured in a 96-well plate in the presence or absence of a test compound (at 8 different concentrations) for 2 hours and then infected with TGEV at a MOI of 10. Six hours after TGEV infection, the ST cells were fixed with 80% acetone and subjected to an indirect immunofluorescent assay (IFA) to examine the levels of TGEV spike (S) and nucleocapsid (N) proteins. Briefly, the fixed cells were incubated with murine monoclonal antibodies specific to these two viral proteins for a sufficient period to allow binding of the antibodies to the viral proteins. After being washed with phosphate-buffered saline for three times, the cells were incubated with a fluorescein isothiocyanate-conjugated anti-mouse immunoglobulin antibody (ICN Pharmaceuticals, Inc./Cappel) for 60 min at room temperature. The cells were washed again with phosphate-buffered saline for three times, and the fluorescence intensities released from these cells were measured by a Wallac Victor II system (Packard, Inc.) at excitation and emission wavelengths 485 nm and 535 nm, respectively. The 50% effective concentration (EC50) for inhibiting S and N protein expression of the test compound was determined based on the florescence intensity values thus measured. Alternatively, the fluorescence intensities were detected by fluorescence microscopy. More specifically, the fluorescent images produced under 485 nm and 535 nm were captured by a charge-coupled device linked to a Leica IM50 Image Manager.

[3] = system: NO production in RAW 264.7 cells; assay: Inhibition of nitric oxide production (Nitrate/Nitrite assay, Griess reagent); settings: Mus musculus, RAW264.7, LPS (10 μg/ml)/IFNγ (20 ng/ml), 18-24 h, read-out: EC50 value for inhibiting nitric oxide production
Protocol: RAW 264.7 cells were seeded (70,000 cells/well) and cultured in a 96-well culture plate using the DMEM medium described above. 24 hours later, the medium was replaced with a fresh DMEM medium supplemented with LPS (10 μg/ml)/IFNγ (20 ng/ml). Test compounds (at different concentrations) were then added. The cells, incubated with or without test compounds, were then cultured for 18-24 h and the nitrate and nitric oxide levels in the culturing medium were measured using a Nitrate/Nitrite assay kit (Cayman Chemical). Nitrate was reduced to nitrite with nitrate reductase and determined spectrophotometrically with Griess reagent at OD540. For each test compound, a dose-response curve was drawn based on the concentrations of the compound versus the corresponding nitrate/nitric oxide levels in the culturing media of the cells treated with the compound. The EC50 value of that compound for inhibiting nitric oxide production was determined according to the dose-response curve.

[4] = Alphacoronavirus 1, ST cells, compound 2 hours before TGEV infection at MOI of 10, read six hours after infection, read-out: EC50 for inhibiting S and N protein expression
[5] = Alphacoronavirus 1, read-out: EC50 for inhibiting S and N protein expression

SMILES | CC50 [1] [µM] | EC50 [2, 4] [µM] | EC50 [2, 5] [µM] | EC50 [3] [µM]
CCCN1CCc2c(c3cc(OC)c(OC)cc3c3cc(OC)ccc23)C1 [Compound 6] | < 50 | < 1 |  | 
CCCN1CCc2c(c3cc(OC)c(OC)cc3c3c(OC)c(OC)c(OC)cc23)C1 [Compound 2] | < 50 |  | < 1 | 
COc1cc2c3c(c4cc(OC)c(OC)cc4c2cc1OC)C(O)CN(C(C)C)C3 (centres unmarked) [Compound 14] | < 50 |  |  | < 1
CCCN1Cc2c(c3cc(OC)c(OC)cc3c3cc(OC)c(OC)cc23)C(O)C1 (centres unmarked) [Compound 10] | < 50 | < 1 |  | < 1
COc1cc2c3c(c4cc(OC)c(OC)cc4c2cc1OC)CN(CCN)CC3 [Compound 36] | < 50 |  |  | 
CCCCN1CCc2c(c3cc(OC)c(OC)cc3c3cc(OC)ccc23)C1 [Compound 7] | < 50 |  |  | 
CCCN1CCc2c(c3cc(OC)ccc3c3cc(OC)c(OC)cc23)C1 [Compound 31] | < 50 |  |  | 
COc1cc2c3c(c4cc(OC)c(OC)cc4c2cc1OC)CN(C1C=CCCC1)CC3 (centres unmarked) [Compound 34] | < 50 |  |  | 
CCCN1CCc2c(c3cc(OC)ccc3c3c(OC)c(OC)ccc23)C1 [Compound 32] | < 50 |  |  | 
CCN1CCc2c(c3cc(OC)ccc3c3cc(OC)c(OC)cc23)C1 [Compound 30] | < 50 |  |  | 
COc1cc2c3c(c4cc(OC)c(OC)cc4c2cc1OC)CN(CCC1OCCO1)CC3 [Compound 24] | < 50 |  |  | 
CCN1CCc2c(c3cc(OC)c(OC)cc3c3cc(OC)ccc23)C1 [Compound 5] | < 50 | < 1 |  | 
COc1cc2c3c(c4cc(OC)c(OC)cc4c2cc1OC)CN(CC(C)C)CC3 [Compound 21] | < 50 |  |  | 
COc1cc2c3c(c4cc(OC)c(OC)c(OC)c4c2cc1OC)CCN(C(C)C)C3 [Compound 4] | < 50 | < 1 |  | 
CCCN1CCc2c(c3ccc(OC)cc3c3cc(OC)c(OC)cc23)C1 [Compound 29] | < 50 |  |  | 
COc1cc2c3c(c4cc(OC)c(OC)cc4c2cc1OC)CN(C(C)C)CC3 [Compound 25] | < 50 |  | < 1 | < 1
CCN1Cc2c(c3cc(OC)c(OC)cc3c3cc(OC)c(OC)cc23)C(O)C1 (centres unmarked) [Compound 9] | < 50 | < 1 |  | < 1
CCCN1Cc2c(c3cc(OC)c(OC)c(OC)c3c3cc(OC)c(OC)cc23)C(O)C1 (centres unmarked) [Compound 8] | < 50 | < 1 |  | 
CCN1CCc2c(c3cc(OC)c(OC)cc3c3cc(OC)c(OC)cc23)C1 [Compound 18] | < 50 |  |  | 
CCCCN1CCc2c(c3cc(OC)c(OC)cc3c3c(OC)c(OC)c(OC)cc23)C1 [Compound 3] | < 50 |  |  | 
COc1cc2c3c(c4cc(OC)c(OC)cc4c2cc1OC)CN(CCNC(=O)OC(C)(C)C)CC3 [Compound 35] | < 50 |  |  | 
CCCCN1CCc2c(c3cc(OC)c(OC)cc3c3cc(OC)c(OC)cc23)C1 [Compound 20] | < 50 |  |  | 
COc1cc2c3c(c4cc(OC)c(OC)cc4c2cc1OC)CN(CC1OCCO1)CC3 [Compound 23] | < 50 |  |  | 
CCC(C)N1CCc2c(c3cc(OC)c(OC)cc3c3cc(OC)c(OC)cc23)C1 (centres unmarked) [Compound 26] | < 50 |  | < 1 | 
CCN1CCc2c(c3cc(OC)c(OC)cc3c3c(OC)c(OC)c(OC)cc23)C1 [Compound 1] | < 50 |  | < 1 | < 1
CCN1Cc2c(c3ccc(OC)cc3c3cc(OC)c(OC)cc23)C(O)C1 (centres unmarked) [Compound 33] | < 50 |  |  | < 1
CCCN1CCc2c(c3cc(OC)c(OC)cc3c3cc(OC)c(OC)cc23)C1 [Compound 19] | < 50 |  | < 1 | 
